This note sets out measurements from ChEMBL document CHEMBL1921747, “Novel cytotoxic chalcones from Litsea rubescens and Litsea pedunculata” (Bioorg Med Chem Lett, 2011).

The test system of one test is A-431. Kind of test: Cytotoxicity against human A431 cells after 48 hrs by MTT assay. To be noted: A-431, 48 h. In kind it is functional, cell-based. On the technique in general: Formazan colour is commonly taken as a measure of viable cells.
In test [1] the test system is HL-60. Kind of test: Ratio of cisplatin IC50 to compound IC50 for human HL60 cells. In kind it is functional.
Another test relates to HepG2. Kind of test: Cytotoxicity against human HepG2 cells after 48 hrs by MTT assay. It counts as functional, cell-based. To be noted: HepG2, 48 h.
Test [2] has as its system HL-60. The experiment in a line: Cytotoxicity against human HL60 cells after 48 hrs by MTT assay. In kind it is functional, cell-based. Conditions: HL-60, 48 h.

Each structure is given as a SMILES string. In brackets after ≈: the same amount, converted by molar mass.

`COC1=CC(=O)C2(OC2C)C(O)=C1C(=O)/C=C/c1ccccc1` (configuration not stated) [LITSEAONE A]: the IC50 in the test on A-431 stood at 11.1 µg/mL (≈ 35.5 µM); in the test with HepG2, 23 µg/mL (≈ 73.6 µM); with HL-60 [2] it was 6.1 µg/mL (≈ 19.5 µM). Further, the “Ratio IC50” value in the test with HL-60 [1] amounted to 2.1.
For `COc1cc(O)c(C(=O)/C=C/c2ccccc2)c2c1OC(C)O2` (configuration not stated) [LITSEAONE B], the IC50 stood at 13.9 µg/mL (≈ 44.5 µM) in the test on A-431, 21.5 µg/mL (≈ 68.8 µM) in the test with HepG2 and 10.2 µg/mL (≈ 32.7 µM) with HL-60 [2].

By IC50 is commonly meant the concentration that inhibits the measured activity by half. The low end stands for greater potency, the high end for weaker potency.
